Common to all, as to assay: microbe, parasite or virus in culture
The test system of experiment [1] is A. baumannii ATCC 17878. As to conditions: for MIC: Acinetobacter baumannii, ATCC17878, read-out: MIC values; for MIC values: conventional antimicrobial agents, Acinetobacter baumannii ATCC 17878. As to the method: (§1) Antimicrobial activity. The antimicrobial activity of ApoB-derived encrypted peptides was assessed against a panel of skin pathogens, such as S. epidermidis ATCC 35984, S. aureus ATCC 12600, A. baumannii ATCC 17878, K. pneumoniae ATCC 700603, S. aureus MRSA (WK7-2), E. faecalis ATCC 29212 and P. aeruginosa PAO1 by using the broth microdilution method. ^20 Bacteria were grown to mid-logarithmic phase in MHB at 37° C. […] Following incubation over-night, each sample was diluted, plated on TSA, and incubated at 37° C. for 24 h to count the number of colonies. All experiments were performed in three independent replicates.

The test system of experiment [2] is K. pneumoniae ATCC 700603. As to conditions: for MIC: Klebsiella pneumoniae, ATCC700603, read-out: MIC values; for MIC values: conventional antimicrobial agents, Klebsiella pneumoniae ATCC 700603. As to the method: as §1
Experiment [3] deals with S. aureus ATCC 12600. As to conditions: for MIC: Staphylococcus aureus, ATCC12600, read-out: MIC values; for MIC values: conventional antimicrobial agents, Staphylococcus aureus ATCC 12600. As to the method: as §1
The test system of experiment [4] is S. epidermidis ATCC 35984. As to conditions: for MIC: Staphylococcus epidermidis, ATCC35984, read-out: MIC values; for MIC values: conventional antimicrobial agents, Staphylococcus epidermidis ATCC 35984. As to the method: as §1

Converted amounts (≈) assume the structure as drawn.

The values below come from US20240067685A1, “HIDDEN ANTIBIOTICS IN THE HUMAN PROTEOME” (priority 2022, published 2024).

Regarding `CCC[C@@H]1C[C@@H](C(=O)N[C@@H]([C@H]2O[C@H](SC)[C@H](O)[C@@H](O)[C@H]2O)[C@H](C)Cl)N(C)C1` [Clindamycin], the results for the MIC in experiment [1], in experiment [2] and in experiment [3] were 62.5 µg/mL (≈ 147 µM), 125 µg/mL (≈ 294 µM) and 0.5 µg/mL (≈ 1.18 µM), respectively.
For the compound `CN[C@H](CC(C)C)C(=O)N[C@H]1C(=O)N[C@@H](CC(N)=O)C(=O)N[C@H]2C(=O)N[C@H]3C(=O)N[C@H](C(=O)N[C@H](C(=O)O)c4cc(O)cc(O)c4-c4cc3ccc4O)[C@H](O)c3ccc(c(Cl)c3)Oc3cc2cc(c3O[C@@H]2O[C@H](CO)[C@@H](O)[C@H](O)[C@H]2O[C@H]2C[C@](C)(N)[C@H](O)[C@H](C)O2)Oc2ccc(cc2Cl)[C@H]1O` [Vancomycin], the MIC turned out to be 50 µg/mL (≈ 34.5 µM) in experiment [1], 50 µg/mL (≈ 34.5 µM) in experiment [2], 0.78 µg/mL (≈ 0.538 µM) in experiment [3] and 1.56 µg/mL (≈ 1.08 µM) in experiment [4].
For `O=C(O)CN(CCN(CC(=O)O)CC(=O)O)CC(=O)O` [EDTA], the MIC values is 24.5 µg/mL (≈ 83.8 µM) in experiment [1], 49 µg/mL (≈ 168 µM) in experiment [2], 24.5 µg/mL (≈ 83.8 µM) in experiment [3] and 196 µg/mL (≈ 671 µM) in experiment [4].
As for `O=C(OOC(=O)c1ccccc1)c1ccccc1` [Benzoyl Peroxide], the MIC in experiment [1] came to 32 µg/mL (≈ 132 µM); in experiment [3], 16 µg/mL (≈ 66.1 µM); in experiment [4] it was 16 µg/mL (≈ 66.1 µM). The MIC values entry in experiment [2] is given as “Resistant”.
On to Polymyxin B, for which the MIC values was 6.25 µg/mL in experiment [1], 6.25 µg/mL in experiment [2], 12.5 µg/mL in experiment [3] and 3.12 µg/mL in experiment [4].
`CC(=O)O[C@H]1C[C@@]2(C)[C@@H](C[C@@H](O)[C@H]3[C@@]4(C)CC[C@@H](O)[C@@H](C)[C@@H]4CC[C@@]32C)/C1=C(\CCC=C(C)C)C(=O)O` [Fusidic acid]: the MIC in experiment [1] was determined as 2.25 µg/mL (≈ 4.35 µM); in experiment [3], 0.06 µg/mL (≈ 0.116 µM); in experiment [4], 0.06 µg/mL (≈ 0.116 µM). For the same compound, the MIC values result in experiment [2] was “Resistant”.
Regarding `CC[C@H]1OC(=O)[C@H](C)[C@@H](O[C@H]2C[C@@](C)(OC)[C@@H](O)[C@H](C)O2)[C@H](C)[C@@H](O[C@@H]2O[C@H](C)C[C@H](N(C)C)[C@H]2O)[C@](C)(O)C[C@@H](C)C(=O)[C@H](C)[C@@H](O)[C@]1(C)O` [Erytromycin], the MIC worked out at 125 µg/mL (≈ 170 µM) in experiment [1], 7.8 µg/mL (≈ 10.6 µM) in experiment [2] and 15 µg/mL (≈ 20.4 µM) in experiment [3]. The MIC values entry in experiment [4] is listed as “Resistant”.
